“And” between values parts separate entries of the source, which are not always exact repeats. Identical values can stand only once. Like-named read-outs stand apart in the source and are kept apart here. Marks after values point to notes of the source that are not given here.
What was measured:
[1] = test system: DU-145 and LNCaP cells; test: Live cell imaging, inverted epifluorescence microscopy with DRAQ5; type: cell-based; settings: 500 nM, 24 hrs incubation
Description: A Zeiss Axiovert 200 inverted phase-contrast microscope outfitted with epifluorescence was used for live imaging studies. Subconfluent cultures of cells in 12-well plates were incubated with 500 nM peptides as indicated. DRAQ5 (Axxora; […] final concentration) was added for the last hour of incubation, then the cells were washed twice with warm phenol red-free buffer. Cells were examined in phenol red-free buffer plus 10% serum. Images were acquired and analyzed using Zeiss Axiovision software.

[2] = test system: DU-145 cells; settings: for % Inhibition of uptake: 300 nM, 4 hr; for uptake of Glu-Oct6-FITC on coincubation with carboxydansyl peptide: 300 nM dansyl peptide + 300 nM Glu-Oct6-FITC, 1 hr, BD LSR II (Figure 2D)
Description: Peptides were added to subconfluent cultures of cells at times, temperatures, and concentrations indicated in experiments. Concentrations ranging from 0 to 1000 nM were assayed. Fluorescence was normalized using calibration beads (Becton-Dickinson; BD). Cells were analyzed in the presence of 5 mM 7-AAD (eBioscience, San Digeo CA) to gate on live events. Fluorescence was quantified, after cells were harvested, using a BD FACScan flow cytometer. At least 10,000 events were acquired using CellQuest Pro software and an Apple Macintosh G4 dual coprocessor computer running OS X 10.3.9. Fluorescence detectors on the instrument were standardized prior to each acquisition run, so that fluorescence intensities from different days could be compared. Because the FACScan employs logarithmic amplifiers on the fluorescence detectors, the more accurate parameter with which to compare fluorescence intensities for different samples is the geometric mean fluorescence intensity (geometric MFI). For the studies examining uptake of carboxyfluorescein peptides plus carboxydansyl peptides, fluorescence was quantified on a BD LSR II flow cytometer.

[3] = test system: DU-145 and LNCaP cells; test: Nuclear colocalization by imaging flow cytometry (DRAQ5), statement pooled over two lines; type: cell-based; settings: 250 nM, 4 hours; fixed cells, IDEAS software
Description: Figure 4 Imaging studies. Figure 4A: DU-145 and LNCaP cells were incubated with 250 nM Glu-Ala-FITC or Glu-Oct6-FITC for 4 hours, counterstained with […] DRAQ 5, then fixed in paraformaldehyde and analyzed by imaging flow cytometry on an Amnis Imaging Cytometer. IDEAS software (Amnis) was used to generate and colorize the images. Across each row of images, one is viewing the same cell under different fluorescence excitations. […] Figure 4B: Live cell imaging of Glu-Oct6-FITC by DU-145 cells. 500 nM Glu-Oct6-FITC was incubated with DU-145 cells overnight (necessary for imaging purposes). Cells were washed with phenol red-free buffer, counter-stained with DRAQ5 at […], and then examined under a Zeiss Axiovert 200 inverted phase contrast microscope with epifluorescence. The merged image confirms the presence of Glu-Oct6-FITC in nuclei. Merged images with and without Nomarski interference are shown. Figure 4C and D: DU-145 cells incubated with Glu-FITC and Oct6-FITC, as described for Figure 3B. Note the absence of FITC fluorescence in nuclei.
(§1) Concentrations ranging from 0 to 1000 nM were assayed. Fluorescence was normalized using calibration beads (Becton-Dickinson; BD). […] Four to five thousand events were collected for analysis.

[4] = test system: PANC-1 cells; test: Nuclear colocalization by imaging flow cytometry (DRAQ5, Amnis ImageStream); type: cell-based; settings: 1000 nM, 18 hr; 4 to 5 thousand events
Description: as §1

[5] = test system: DU-145 cells; test: as above; type: cell-based; settings: 1000 nM, 18 hr; 4 to 5 thousand events
Description: as §1

[6] = test system: PANC-1 cells; test: Apoptosis, FITC-annexin V plus PI flow cytometry; type: cell-based; settings: 48 hr, mean of 3 experiments
Description: (§2) DU-145 and PANC-1 cells were incubated with PNAs Glu-Oct6-13410a or 13410a (no CPP attached) at 0, 300, 600, or 1000 nM for 48 hr. Cells were harvested, then stained with FITC-annexin V (Abcam; Cambridge, MA) and counterstained with propidium iodide (Sigma, St.Louis, MO). Cells were analyzed on a BD FACScan for fluorescence in the FL1 and FL3 channels; CellQuest Pro software was used to quantify fluorescence and determine the extent of apoptosis.

[7] = test system: DU-145 cells; test: Apoptosis, FITC-annexin V plus PI flow cytometry; type: cell-based; settings: 48 hr, mean of 3 experiments
Description: as §2

## EEEAA-FITC [Glu-Ala-FITC, carboxyfluorescein-labeled glutamate-rich peptide EEEAA-FITC]
[1]
  accumulation in the nuclei: not
[2]; 0% NaN3 (reference)
  % Inhibition of uptake: 0%
[2]; 0.1% NaN3
  % Inhibition of uptake: 0%
[3]
  nuclei positive for DRAQ5 and FITC colocalization: ~ 10%

## EEEAAGRKRKKRT-FITC [Glu-Oct6-FITC, novel CPP, EEEAA on the N-terminus of the Oct6 NLS, FITC-labeled]
[1]
  accumulation in the nuclei: accumulated in the nuclei
[2]; 0% NaN3 (reference)
  % Inhibition of uptake: 0%
[2]; 0.1% NaN3
  % Inhibition of uptake: 0%
[2]; 1.0% NaN3
  % Inhibition of uptake: 24.8%
[3]
  distribution in the cytoplasm: approximately 50%
  distribution in the nucleus: approximately 50%

## EEEAAGRKRKKRT-TATGATCTCCTCCGT-K-FITC [Glu-Oct6-PNA-FITC, Glu-Oct6 at the N terminus, inert PNA …-lysyl-FITC at the C terminus]
[4]
  mean % cyto. FITC: 21.8%
  mean cyto. FITC intensity: 68,465
  mean nuclear FITC intensity: 322,794
[5]
  mean % cyto. FITC: 22.48%
  mean % nuclear FITC: 68.04%
  mean cyto. FITC intensity: 76,943
  mean nuclear FITC intensity: 274,597

## EEEAAGRKRKKRT-TCCCGTAAATCCCTA [Glu-Oct6-13410a]
[6]; 300 nM PNA
  % apop.: 17.4%
[6]; 600 nM PNA
  % apop.: 69% and 69.6* %
[6]; 1000 nM PNA
  % apop.: 84.6* %
[7]; 300 nM PNA
  % apop.: 8.7%
[7]; 600 nM PNA
  % apop.: 48% and 48.7* %
[7]; 1000 nM PNA
  % apop.: 82.5* %

## EEEAAKKK-FITC [Glu-Lys-FITC]
[2]; 0% NaN3 (reference)
  % Inhibition of uptake: 0%
[2]; 0.1% NaN3
  % Inhibition of uptake: 0%

## FFFAAGRKRKKRT-dansyl [Phe-Oct6-Dansyl]
[2]
  uptake of Glu-Oct6-FITC on coincubation with carboxydansyl peptide: nearly unaltered uptake

## GRKRKKRT-FITC [Oct6-FITC, reference compound]
[1]
  accumulation in the nuclei: not
[2]; 0% NaN3 (reference)
  % Inhibition of uptake: 0%
[2]; 0.1% NaN3
  % Inhibition of uptake: 29.8%
[2]; 1.0% NaN3
  % Inhibition of uptake: 56.7%

## NNNAAGRKRKKRT-dansyl [Asn-Oct6-Dansyl]
[2]
  uptake of Glu-Oct6-FITC on coincubation with carboxydansyl peptide: nearly unaltered uptake

— paper PMC2987774, “Creation of a novel peptide with enhanced nuclear localization in prostate and pancreatic cancer cell lines” (BMC Biotechnology, 2010)
